Results from PMC12766730, “Controlled Self-Immolative Release of β‑Lapachone via an Optimized para-Hydroxybenzyl Linker for Targeted Pancreatic Cancer Therapy” (Journal of the American Chemical Society, 2025).
Where two headings read alike, the source gives them in different places. Blank lines part the entries; values can stand above or below the molecule they belong to.

Tests used:
[1] = Release of β-lapachone (1) from deprotected PHB/PAB linkers (3 or 25) in citrate-phosphate buffers pH 3–10, analytical HPLC; type: physicochemical; details: for release rate faster than unsubstituted parent: 3f vs 3a, 25 vs 4
Protocol: First, the purified mixture of two prodrug diastereomers (16a–j) for each PHB derivative was incubated with β-glucuronidase. This enabled full removal of the glucuronide moiety from both diastereomers of the prodrug within 2–15 min, leaving a mixture of two PHB-β-lapachone enantiomers (3a–j, Figure c). For PAB compound 22, penicillin G amidase was used in place of β-glucuronidase to give a mixture of two PAB-β-lapachone enantiomers (25). The 3 (or 25) solution was then spiked into citrate-phosphate buffers from pH 3–10, and release of 1 from 3 (or 25) was measured at various time points by analytical HPLC. A single peak for the two enantiomers of 3 was observed after glucuronide removal, and thus the measured k obs was for both enantiomers in the mixture.
3 Release rate comparison for PHB and PAB prodrugs. The mechanisms of release for the β-glucuronide–PHB prodrug derivatives (a) and the PAB derivative (b) are shown. β-glucuronidase or penicillin G amidase deprotects the PHB or PAB linkers, yielding 3 or 25, respectively. A 1,6-elimination then occurs, releasing the hydroquinone form of β-lapachone, which then oxidizes into the ortho-quinone. (c) The substituents on the PHB/PAB linker for each derivative are shown and classified into which strategy they employed, lowering phenolate pK a or stabilizing the elimination TS. BLap = β-lapachone in its α-hydroxy ketol form (refer to panel a). The predicted pK a values are also shown, calculated using MolGpKa. (d) The representative HPLC traces of a release experiment for 3g at pH 7 are shown (RT: retention time) normalized to the warfarin (WF) internal standard (IS, RT = 11.6 min). The peak for 3g (RT = 12.5 min) decreases while the peak for 1 (RT = 10.8 min) increases over time. The traces for all other derivatives at each pH are included in Figures S10–S20, S34–S45. (e) The calculated k obs values from these release kinetic experiments for each PHB derivative are plotted versus pH on a logarithmic scale. Derivatives 3a–e were designed to lower the PHB phenol pK a, while derivatives 3f–j were designed to stabilize the 1,6-elimination TS. (f) The first-order reaction rate constants of the PAB derivatives 4 (pink) and 25 (purple) are plotted together with 3a (black) and the best-performing PHB derivatives 3f (cyan) and 3i (dark green) for direct comparison. The derivations of the plotted first-order k obs values from linearized initial velocities measured in triplicate are shown in Figures S23–S33. […]
Over time, the intensity of the 3/25 peak decreased, while the intensity of the 1 peak increased (Figure d). A standard curve for β-lapachone (Figure S22) was prepared, enabling quantification of the released β-lapachone.

[2] = HPLC stability assay of prodrugs in buffers pH 3, 5, 7, 7.4 (PBS), 9 at 37 °C for 72 h without trigger; type: physicochemical; details: for stability of the prodrug without triggering enzyme: 37 °C, 72 h, pH 3–9; for premature lapachone release, percent of total prodrug: 72 h at 37 °C, no H2O2
Protocol: The diastereomeric mixture of each β-glucuronide–PHB-β-lapachone prodrug (16a–j) and PAB derivative 22 were then tested for stability in citrate-phosphate buffers across a range of pHs (3, 5, 7, 7.4 (PBS), 9) via an HPLC stability assay. For derivatives 16a, 16b, 16d, 16e, 16h, and 16j, when no β-glucuronidase enzyme was added, both diastereomers of 16 were fully stable at 37 °C for 72 h (Figures a,d, S63, S64, S66–68, S71, and S73). […] This premature release was greatest at acidic pH 3 for 16g, with very minimal lapachone release detected at pH 5–9 (Figure c). The released lapachone was quantified and compared to the starting concentration of each prodrug to calculate the percent of the prodrug that had been prematurely released (Figures f,g, S76). […] Therefore, a trade-off exists between ring activation, improving the release rate from 3 while also decreasing prodrug stability, and it rendered 16g clinically disadvantageous.  5 Stability of prodrugs is pH dependent. The representative HPLC traces for (a) a stable prodrug 16a and (b) an unstable prodrug 16g are shown after incubation at 37 °C in pH 7.4 PBS buffer. […] (c) The area of the lapachone peak for 16g normalized to the IS was plotted, displaying substantial growth over time at pH 3. […] For panels c–g, each value is plotted as the mean ± SD of three replicates. The HPLC traces (Figures S50–S62) and peak area graphs (Figures S63–S75) for all other derivatives can be found in the Supporting Information. The stability of 26 was also evaluated from pH 3–9 (Figures d,f–h S86–S87). […] This degradation was the largest at pH 9, with a measurable decrease in the prodrug peak area after 72 h (Figure g). The lapachone released after 72 h was quantified using a standard curve (Tables S6.1–S6.2). At pH 3 and 5, approximately 0.2% of the total prodrug lapachone had been released.

PANC-1 = experiment: PDAC cell viability after 72 h of treatment, PANC-1; type: cell-based
Protocol: (§1) All ortho-quinone prodrug derivatives were tested on two pancreatic cancer cell lines, PANC-1 and AsPC-1, to assess efficacy in cell killing (Figures , S88–89, S91, Tables , and S8.1). Exogenous β-glucuronidase was added to the cell media to mimic the extracellular enzyme present in the TME. […] Those derivatives with release rates slower than that of 16a, like 16e, had less efficacy in cells comparatively (Table ).
(§2) 7 PDAC cell viability with prodrug treatment. Representative PANC-1 (a) and AsPC-1 (b) cell viability data of four β-lapachone prodrug derivatives after 72 h of treatment with exogenous β-glucuronidase added. Panels (c, d) show the toxicity of functional prodrugs up to 100 μM in PANC-1 (c) and AsPC-1 (d) cells without exogenous β-glucuronidase enzyme present after 72 h incubation.
(§3) To assess the TW of the prodrug derivatives, we tested each of them in both the PANC-1 and AsPC-1 cell lines at up to 100 μM without the β-glucuronidase enzyme present. In agreement with the HPLC stability assay data, we saw no toxicity in all stable prodrug derivatives up to this concentration (Figure c,d). […] In comparison, all the stable glucuronide prodrug derivatives retained 100% viability at 100 μM. […] It is generally considered that a drug has a good therapeutic safety profile if the TI is greater than 10, which our best derivatives far exceed, signaling that our prodrug is safe to deliver systemically in future in vivo experiments and should not cause any adverse effects in areas where β-glucuronidase is not overexpressed. ,

AsPC-1 = experiment: PDAC cell viability after 72 h of treatment, AsPC-1; type: cell-based; details: for IC50: Homo sapiens
Protocol: as §1, §2, §3

[3] = Homo sapiens, PANC-1, exogenous β-glucuronidase added, average ± SD of biological replicates, read-out: PANC-1 IC50
[4] = ASPC1, exogenous β-glucuronidase added, average ± SD of biological replicates, read-out: AsPC-1 IC50
[5] = Homo sapiens, PANC-1, exogenous β-glucuronidase added, representative experiment, read-out: IC50 on PANC-1, representative viability data (Figure 7a)
[6] = ASPC1, exogenous β-glucuronidase added, representative experiment, read-out: IC50 on AsPC-1, representative viability data (Figure 7b)
[7] = exogenous β-glucuronidase added, average ± SD of biological replicates

SMILES: CC1(C)CCC2=C(O1)c1ccccc1C(O)(Cc1cc(F)c(O[C@@H]3O[C@H](C(=O)O)[C@@H](O)[C@H](O)[C@H]3O)c(F)c1)C2=O (some centres unmarked) [16b]
stability of the prodrug without triggering enzyme [2]: fully stable | IC50 (PANC-1; [3]): 11 ± 2 µM | IC50 (AsPC-1; [4]): 24 µM

SMILES: CC(c1ccc(O[C@@H]2O[C@H](C(=O)O)[C@@H](O)[C@H](O)[C@H]2O)cc1)C1(O)C(=O)C2=C(OC(C)(C)CC2)c2ccccc21 (some centres unmarked) [16i]
stability of the prodrug without triggering enzyme [2]: trace β-lapachone release was detected | IC50 (PANC-1; [3]): 0.8 ± 0.5 µM | IC50 (PANC-1; [5]): 0.3 µM | IC50 (AsPC-1; [4]): 0.9 ± 0.5 µM | IC50 (AsPC-1; [6]): 0.5 µM

SMILES: CC1(C)CCC2=C(O1)c1ccccc1C(O)(Cc1c(F)cc(O[C@@H]3O[C@H](C(=O)O)[C@@H](O)[C@H](O)[C@H]3O)cc1F)C2=O (some centres unmarked) [16d]
stability of the prodrug without triggering enzyme [2]: fully stable | IC50 (PANC-1; [3]): 21 ± 3 µM

SMILES: COc1cc(O[C@@H]2O[C@H](C(=O)O)[C@@H](O)[C@H](O)[C@H]2O)cc(OC)c1CC1(O)C(=O)C2=C(OC(C)(C)CC2)c2ccccc21 (mixture of isomers) [16g]
stability of the prodrug without triggering enzyme [2]: trace β-lapachone release was detected | IC50 (PANC-1; [3]): 1.2 ± 0.3 µM | IC50 (PANC-1; Homo sapiens, PANC-1, no enzyme, value printed in the picture, read-out: IC50, prodrug toxicity without β-glucuronidase on PANC-1 (Figure 7c)): 20 µM | IC50 (PANC-1; Homo sapiens, PANC-1, no release-triggering enzyme, tested up to 100 μM, read-out: IC50 in PANC-1 without exogenous β-glucuronidase): 26 ± 6 µM | IC50 (AsPC-1; [4]): 1.6 ± 0.6 µM | IC50 (AsPC-1; ASPC1, no enzyme, value printed in the picture, read-out: IC50, prodrug toxicity without β-glucuronidase on AsPC-1 (Figure 7d)): 68 µM | IC50 (AsPC-1; ASPC1, no release-triggering enzyme, tested up to 100 μM, read-out: IC50 in AsPC-1 without exogenous β-glucuronidase): 75 ± 7 µM

SMILES: CC1(C)CCC2=C(O1)c1ccccc1C(O)(Cc1c(F)c(F)c(O[C@@H]3O[C@H](C(=O)O)[C@@H](O)[C@H](O)[C@H]3O)c(F)c1F)C2=O (some centres unmarked) [16c]
stability of the prodrug without triggering enzyme [2]: trace β-lapachone release was detected | PANC-1 IC50 (PANC-1; [7]): Inactive | AsPC-1 IC50 (AsPC-1; [7]): Inactive

SMILES: COc1cc(CC2(O)C(=O)C3=C(OC(C)(C)CC3)c3ccccc32)cc(OC)c1O[C@@H]1O[C@H](C(=O)O)[C@@H](O)[C@H](O)[C@H]1O (some centres unmarked) [16h]
stability of the prodrug without triggering enzyme [2]: fully stable | IC50 (PANC-1; [3]): 1.2 ± 0.4 µM | IC50 (AsPC-1; [4]): 3.2 ± 1.7 µM

SMILES: CCCN(C)S(=O)(=O)c1cc(CC2(O)C(=O)C3=C(OC(C)(C)CC3)c3ccccc32)ccc1O[C@@H]1O[C@H](C(=O)O)[C@@H](O)[C@H](O)[C@H]1O (single isomer, unassigned) [16e]
stability of the prodrug without triggering enzyme [2]: fully stable

SMILES: CC1(C)CCC2=C(O1)c1ccccc1C(=O)C2=O [compound 1, β-lapachone, reference compound]
IC50 (PANC-1; [3]): 1.8 ± 0.2 µM | IC50 (AsPC-1; [4]): 5.4 ± 0.7 µM | IC50 (AsPC-1; [6]): 4.7 µM

SMILES: CC1(C)CCC2=C(O1)c1ccccc1C(O)(Cc1ccc(O[C@@H]3O[C@H](C(=O)O)[C@@H](O)[C@H](O)[C@H]3O)cc1)C2=O (some centres unmarked) [16a]
stability of the prodrug without triggering enzyme [2]: fully stable | IC50 (PANC-1; [3]): 9.6 ± 0.9 µM | IC50 (PANC-1; [5]): 11 µM | IC50 (AsPC-1; [4]): 19 ± 3 µM | IC50 (AsPC-1; [6]): 16 µM

Other lines, results leading:

release rate faster than unsubstituted parent [1]: around 2 orders of magnitude
SMILES: COc1cc(O)ccc1CC1(O)C(=O)C2=C(OC(C)(C)CC2)c2ccccc21 (centres unmarked) [3f]

stability of the prodrug without triggering enzyme [2]: fully stable | IC50 (PANC-1; [3]): 1.1 ± 0.4 µM | IC50 (AsPC-1; [4]): 2.8 ± 1 µM
SMILES: COCCOc1cc(O[C@@H]2O[C@H](C(=O)O)[C@@H](O)[C@H](O)[C@H]2O)ccc1CC1(O)C(=O)C2=C(OC(C)(C)CC2)c2ccccc21 (some centres unmarked) [16j]

stability of the prodrug without triggering enzyme [2]: trace β-lapachone release was detected
SMILES: COc1cc(NC(=O)Cc2ccccc2)ccc1CC1(O)C(=O)C2=C(OC(C)(C)CC2)c2ccccc21 (centres unmarked) [compound 22]

premature lapachone release, percent of total prodrug ([2]; pH 3): approximately 0.2% | premature lapachone release, percent of total prodrug ([2]; pH 5): approximately 0.2% | premature lapachone release, percent of total prodrug ([2]; pH 7): ~0.6% | premature lapachone release, percent of total prodrug ([2]; pH 7.4): ~2.3% | premature lapachone release, percent of total prodrug ([2]; pH 9): ~10.9%
SMILES: CC1(C)CCC2=C(O1)c1ccccc1C(O)(Cc1ccc(B(O)O)cc1)C2=O (centres unmarked) [compound 26, reference compound]

acceleration of release rate at pH 5 ([1]; pH 5, compared with unsubstituted 3a): ~2200 fold | acceleration of release rate at pH 7.5 ([1]; pH 7.5, compared with unsubstituted 3a): ~800 fold
SMILES: COc1cc(O)cc(OC)c1CC1(O)C(=O)C2=C(OC(C)(C)CC2)c2ccccc21 (centres unmarked) [3g]

release rate faster than unsubstituted parent [1]: around 2 orders of magnitude
SMILES: COc1cc(N)ccc1CC1(O)C(=O)C2=C(OC(C)(C)CC2)c2ccccc21 (centres unmarked) [compound 25]

IC50 (PANC-1; exogenous β-glucuronidase added, average ± SD of biological replicates, read-out: PANC-1 IC50): 70 µM | IC50 (PANC-1; no release-triggering enzyme, tested up to 100 μM, read-out: IC50 in PANC-1 without exogenous β-glucuronidase): 70 µM
SMILES: CC1(C)CCC2=C(O1)c1ccccc1C(O)(Cc1ccccc1)C2=O (centres unmarked) [compound 27, reference compound]
